Marks after values point to notes of the source that are not given here.
Columns and labels:
[1] = tested on: acetic acid-induced colitis; assay: Acetic acid-induced colitis in rats, densitometric image analysis of colonic damage; assay type: in vivo; conditions: for Damage (%): 650 μmol kg^−1 intracolonically 30 min before 4% acetic acid, mean ± standard deviation; for protection against acetic acid-induced colonic damage (in words): intracolonic, image analysis and MPO assay
Protocol: (§1) The ligands were administered to the rats intracolonically as a suspension or solution in distilled water (2 mL) at a dose of 650 μmol kg^−1. The drug solutions were made fresh for each experiment. ROWASA®, the pharmaceutical preparation which contains 5-ASA (2 mL, 66.7 mg mL^−1) was given at a dose of 2318 μmol kg^−1. Control rats received distilled water (2 mL), administered intracolonically.
(§2) Animal care and experimental procedures were approved by the Institutional Animal Care and Use Committee. Colitis was induced by a modification of published methods. Briefly, the rats were anesthetized with sodium pentobarbital, 55 mg kg^−1 intraperitoneally. The abdomen was shaved and prepared for surgery. A midline incision was made, and the cecum and proximal colon were exteriorized. A reversible suture was placed at the junction of the cecum and proximal colon. The colon was rinsed with saline (10 mL), and the fluid and intestinal contents were gently expressed out the rectum. A gum-based rectal plug was inserted. The compound of interest, or distilled water in the control animals (2 mL), was injected intracolonically just distal to the ligature. The cecum and proximal colon were returned to the abdominal cavity; the compound was allowed to remain in the gut for 30 min. Then, the cecum and proximal colon were reexteriorized. The rectal plug was removed, and the drug was gently expressed out of the colon. Acetic acid (4%, 2 mL) was injected into the proximal colon over a 15-20-second time period. The acid was allowed to remain in the gut until one minute had passed (i.e., 40-45 seconds after the end of the acid administration). The no acid control rats received distilled water (2 mL), which was administered in the same manner as was the acetic acid. Air (10 mL) was then injected into the proximal colon to expel the acid or water. The cecal/proximal colon ligature was removed, the gut was returned to the abdominal cavity, and the incisions were closed. The animals were allowed to recover overnight and were sacrificed 24 hr later. The entire length of the colon was removed and assessed for damage both densitometrically and biochemically.
Gross damage was quantitated using Photoshop-based image analysis (version 5.0, Adobe Systems, Mountain View, Calif., USA) on an Apple iMac computer. The Magic Wand tool in the Select menu of Photoshop was used to place the cursor on an area of obvious damage. The tolerance level of the Magic Wand tool was set at 30. The damaged areas were automatically selected by using the Similar command in the Select menu. Then, the Eyedropper tool was used to determine the range of the damage in the highlighted areas. Individual colon images were copied to a blank Photoshop page. The Magic Wand tool, with a tolerance set to 100, was used to select all of the pixels in the colon sample. Then, the Histogram tool, which generates a graph in which each vertical line represents the number of pixels associated with a brightness level, was selected in the Image menu. The Red channel was then selected; the darker (damaged areas) appear on the left side of the histogram and the lighter (normal) areas are on the right side. The cursor was then placed on the histogram, the color range determined in an earlier step was selected, and the number of pixels encompassing that range and the percent damage were quantified automatically.
Two means were employed to assess the damage to the colon in the presence and absence of ligand, computer-based image analysis and colonic MPO measurement. The densitometric method removes much of the subjectivity involved in the simple scoring approaches. A digital image of the prepared colonic tissue is taken, and a clearly damaged segment is highlighted on the screen. Once the computer identifies all other segments of the intestine with the same or greater damage, a pixel number is generated; this number makes it possible to calculate the percentage of damaged intestine.

[2] = Quenching of the ABTS radical cation; conditions: for radical trapping compared with Trolox (in words): method of Example 6
Protocol: The iron chelators were tested for their ability to quench the radical cation formed from 2,2′-azinobis(3-ethylbenzothiazoline-6-sulfonic acid) (ABTS) by the method of Re et al. in Free Radic. Biol. Med. 26, 1231-1237 (1999). Briefly, a stock solution of ABTS radical cation was generated by mixing ABTS (10 mM, 2.10 mL) with K2S2O8 (8.17 mM, 0.90 mL) in H2O and […] deep blue-green ABTS radical cation was diluted in sufficient sodium phosphate (10 mM, pH 7.4) to give an A734 of about 0.900. Test compounds were added to a final concentration ranging from 1.25 to 15 μM, and the decrease in A734 was read after 1, 2, 4 and 6 min. The reaction was largely complete by 1 min, but the data presented are based on a 6-min reaction time.
In this assay, a fairly stable radical cation, ABTS^+, was examined, and Trolox, an analog of vitamin E, was used as a positive control. Briefly, the procedure involved generating the blue-green chromophore by the reaction of ABTS with K2S2O8. The radical has absorption maxima at λ=415, 645, 734, and 815 nm. The change in absorbance at 734 nm was noted 6 min after addition of the chelator of interest at various concentrations, and the slope of the ΔA734 vs. ligand concentration line was calculated.
The iron chelators were tested for their ability to quench the radical cation formed from 2,2′-azinobis(3-ethylbenzothiazoline-6-sulfonic acid) (ABTS) by a published method (Re, R., et al., Free Radical Biol. Med. 26:1231-1237 (1999). Briefly, a stock solution of ABTS radical cation was generated by mixing ABTS (10 mM, 2.10 mL) with K2S2O8 (8.17 mM, 0.90 mL) in H2O and allowing the solution to sit in the dark at room temperature for 18 hours. This stock solution of deep blue-green ABTS radical cation was diluted in sufficient sodium phosphate (10 mM, pH 7.4) to give an A734 of about 0.900. Test compounds were added to a final concentration ranging from 1.25 to 15 μM, and the decrease in A734 was read after 1, 2, 4 and 6 min. The reaction was largely complete by 1 min, but the data presented are based on a 6-min. reaction time.
This radical cation decolorization assay utilizes the pre-formed radical monocation of 2,2′-azinobis(3-ethylbenzothiazoline-6-sulfonic acid) (ABTS) and has been used to evaluate the antioxidant capacity of a large number of compounds and mixtures. Briefly, the change in absorbance of the blue-green chromophore was recorded after the addition of the chelator of interest at each of the different concentrations, and the slope of the ΔA734 vs. ligand concentration line was calculated. The positive control for this reaction was Trolox, an analogue of vitamin E. The decrease in A734 as a function of ligand concentration is the comparitor among the five compounds evaluated. Trolox, L1, DFO, (S)-4′-(HO)-DADMDFT and BDU (Table 3). All four of the iron chelators performed better than Trolox; DFO≈BDU>(S)-4′-(HO)-DADMDFT>L1>Trolox. Thus, all of these ligands could be expected to serve as excellent radical scavengers.

[3] = tested on: Myeloperoxidase (MPO) activity in colonic tissue; assay: Myeloperoxidase (MPO) assay in colonic tissue of rats with acetic acid-induced colitis; assay type: in vivo; conditions: 650 μmol kg^−1 intracolonically 30 min before 4% acetic acid, mean ± standard deviation
Protocol: as §1, §2
The activity of MPO was measured in colonic tissue by a modification of the method of Krawisz et al. in Gastroenterology 87, 1344-1350 (1984). Each excised colon was homogenized in 9 volumes of homogenization buffer (0.5% hexadecyltrimethylammonium bromide (HDTMA) in 50 mM sodium acetate, pH 6.0); this homogenate was centrifuged at 1200 g for 20 min at 4° C. A sample of the supernatant (1.8 mL) was transferred into a microcentrifuge tube and stored frozen at −20° C. for up to one week. Prior to assay, the thawed aliquot was centrifuged at about 10,000 g for 15 minutes at 4° C. The final supernatant (33 μL) was added to a solution of o-dianisidine HCl (0.17 mg mL^−1 in 50 mM sodium acetate, pH 6.0, made fresh daily and filtered immediately before use) (950 μL), the mixture was vortexed, and the peroxidase reaction was initiated by the addition of H2O2 to 50 mM sodium acetate, pH 6.0, made fresh daily (16.7 μL). The A470 at room temperature (ca. 23° C.) was read at 15-second intervals for 2 min. The rates were assessed graphically and are presented as change in milliabsorbance units (ΔmAU)/min per g tissue. Under these conditions, 0.1 “Unit” of purified human leukocyte myeloperoxidase (Sigma M-6908) produced a ΔA470 of about 400 mAU/min.
The biochemical measurement involves measuring the level of MPO in a sample of homogenate of the whole rat colon. When the colon is damaged by the acetic acid, there is an extravasation of neutrophils. The extent of this infiltration can serve as a quantitative marker for tissue damage. Although other leukocytes, such as eosinophils and monocytes, also contribute to the inflammatory response, their contribution is small; the majority of the cells recruited during the acute inflammatory response are neutrophils. […]

[4] = Prevention of iron-mediated oxidation of ascorbate (ascorbate-mediated reduction of Fe(III)); conditions: ascorbate 100 μM, FeCl3 30 μM, pH 7.4, ligand/Fe ratios 0-3, 40 min
Protocol: (§3) The iron chelators were tested for their ability to diminish the iron-mediated oxidation of ascorbate by the method of Dean and Nicholson (Free Radical Res. 20, 83-101 (1994)). Briefly, a solution of freshly prepared ascorbate (100 μM) in sodium phosphate buffer (5 mM, pH 7.4) was incubated in the presence of FeCl3 (30 μM) and chelator (ligand/Fe ratios varied from 0-3) for 40 min. The A265 was read at 10 and 40 min; the ΔA265 in the presence of ligand was compared to that in its absence.
The role of chelators in either inhibition or promotion of the Fenton reaction is related to their capacity to prevent Fe(III) from being reduced to Fe(II). Fe(II) is required for the reduction of H2O2 to HO. and HO^−. The assay involves spectrophotometrically monitoring the disappearance of ascorbate at pH 7.4 in the presence of FeCl3 and chelator at several ligand/Fe ratios. Under these conditions, ascorbate is oxidized to an L-ascorbyl radical anion. This anion then disproportionates to dehydroascorbic acid and ascorbate.
as §3, with “chelators nitrilotriacetic acid (NTA), 1,2-dimethyl-3-hydroxypyridin-4-one (L1), desferrioxamine B (DFO), (S)-4′-(HO)-DADMDFT, and (S,S)-1,11-Bis[5-(4-carboxyl-4,5-dihydro-1,3-thiazol-2-yl)-2,4-dihydroxyphenyl]-4,8-dioxaundecane (BDU)” for “chelators”, “Nicholson, Free” for “Nicholson (Free”, “20:” for “20,”, “(1994).” for “(1994)).”
The measurement examines the disappearance of ascorbate. It is known that DFO, a hydroxamate chelator that forms a 1:1 complex with Fe(III) at a formation constant of approximately 10^31 M^−1, prevents ascorbate-mediated reduction of Fe(III); it serves as a positive control in the present study. Both NTA and L1 promote ascorbate-mediated reduction of Fe(III) and serve as negative controls.

[5] = Quenching of the ABTS radical cation; conditions: Table 5; 6-min reaction, initial OD 1.000
[6] = Table 1, A734, six-minute reaction, pH 7.4, 1.25 to 15 μM

Structure (SMILES) | Damage (%) [1] [%] | Slope × 10^3 OD units/μM (ABTS radical cation quenching) [2, 6] | MPO activity [3] | effect on ascorbate-mediated reduction of Fe(III) (in words) [4] | radical trapping compared with Trolox (in words) [2] | Slope × 10^3 OD units/μM (ABTS radical cation quenching) [5] | protection against acetic acid-induced colonic damage (in words) [1] | Slope × 10^3 OD units/μM (ABTS radical cation quenching) ([2]; Table 3, A734, 6-min reaction, values marked b are the inventors' unpublished results)
Cc1ccc(O)c(C2=NC(C(=O)O)CC2)c1 (centres unmarked) [PCA, 3,4-dihydro-5-(2-hydroxy-5-methylphenyl)-2H-pyrrole-2-carboxylic acid] | 44 ± 11 | −3.3 × 10^3 OD units/μM | 29942 ± 11255 mAU min^−1g of colonic tissue^−1 | – | – | – | – | –
O=C(O)C1CSC(c2ncccc2O)=N1 (centres unmarked) [DMDFT, desmethyldesferrithiocin] | 61 ± 15 | −1.3 × 10^3 OD units/μM | 39229 ± 27109 mAU min^−1g of colonic tissue^−1 | – | – | – | – | –
COc1ccc(C2=N[C@@H](C(=O)O)CS2)c(O)c1 [4′-(CH3O)-DADMDFT, 4′-methoxydesazadesmethyldesferrithiocin] | – | – | – | slowed Fe(III) reduction considerably | as effective as Trolox | −33 × 10^3 OD units/μM | – | –
CN(O)C(=O)[C@H]1CSC(c2ccc(O)cc2O)=N1 [4′-(HO)-DADMDFT-NMH] | 39 ± 11 | −135.5 × 10^3 OD units/μM | 18426 ± 20930 mAU min^−1g of colonic tissue^−1 | – | – | – | – | –
CN(O)C(=O)[C@@]1(C)CSC(c2ccc(O)cc2O)=N1 [4′-(HO)-DADFT-NMH] | 46 ± 23 | −141.4 × 10^3 OD units/μM | 41021 ± 35525 mAU min^−1g of colonic tissue^−1 | – | – | – | moderately effective | –
Cc1c(C)c2c(c(C)c1O)CCC(C)(C(=O)O)O2 (centres unmarked) [Trolox, reference compound] | – | −36.6 × 10^3 OD units/μM | – | – | – | −37 × 10^3 OD units/μM | – | −37^b × 10^3 OD units/μM
COc1ccc(C2=NC(C)(C(=O)O)CS2)c(O)c1 (centres unmarked) [4′-(CH3O)-DADFT, 4′-methoxydesazadesferrithiocin] | – | – | – | slowed Fe(III) reduction considerably | as effective as Trolox | −36 × 10^3 OD units/μM | – | –
CN(O)C(=O)C1CSC(c2ncccc2O)=N1 (centres unmarked) [DMDFT-NMH, desmethyldesferrithiocin-N-methyl-hydroxamate] | 22 ± 17 | −47.4 × 10^3 OD units/μM | 14406 ± 8683 mAU min^−1g of colonic tissue^−1 | – | – | – | most effective | –

From patent publication US20050234113A1, “Antioxidant and radical scavenging activity of synthetic analogs of desferrithiocin” (University of Florida Research Foundation, Inc., priority 2002, published 2005)
